Measured values as given in PMC7349888, “Synthesis and Evaluation of Dodecaboranethiol Containing Kojic Acid (KA-BSH) as a Novel Agent for Boron Neutron Capture Therapy” (Cells, 2020).
Where “and” joins values, the source holds several entries; their conditions need not be identical. Equal entries are not always repeated.

Tests used:
F98 rat glioma cells [1] = assay: Cell viability assay (WST-8) in F98 cells; format: cell-based; conditions: WST-8 test, read-out: IC50 (cytotoxicity)
Protocol: The cytotoxicity of KA-BSH was assayed using the water soluble tetrazolium (WST)-8 assay with a cell-counting kit (Wako Pure Chemicals, Osaka, Japan) following a modified version of the manufacturer-provided protocols. Relative cell survival was calculated according to Equation (1):(1) Relative cell survival (%)=absorbance value of compound treated well/absorbance value of untreated well×100

F98 glioma bearing rats = assay: Biodistribution in F98 glioma bearing rats (ICP-AES); format: in vivo, rat; conditions: iv
Excerpt: All animal experimental procedures were approved by the Animal Use Review Board and Ethical Committee of Osaka Medical College (No. 25092, 28 October 2015) and Kyoto University Research Reactor Institute (KURRI, No. 25030-13, 1 April 2015), and performed following the Guide for the Care and Use of Laboratory Animals. Eight-week-old, male Fischer 344 rats weighing between 200 and 250 g were used (Japan SLC, Inc. Shizuoka, Japan). Rats were anesthetized with an intraperitoneal (ip) injection of a mixture of medetomidine 0.15 mg, midazolam 2 mg, and butorphanol 2.5 mg/kg body weight (bw). The head of each rat was fixed with a stereotactic frame (Model 900; David Kopf Instruments, Tujunga, CA, USA). The scalp was incised at the midline and a small burr hole was drilled into the skull (1 mm posterior and 4 mm right-lateral to the bregma), using an electric drill. And then, F98 glioma cells were injected into the brain using a 25 µL Hamilton microsyringe with a 26-gauge needle (model 1700 RN, Hamilton Bonaduz AG, Bonaduz, Switzerland). The needle was inserted at a 5 mm depth from the skull and F98 cells were diluted in 10 µL of DMEM containing low-gelling temperature agarose at a concentration of either 10^3 for therapeutic experiments or 10^5 cells for biodistribution experiments. They were injected over 30 s using an automatic infuser pump. The needle entry hole was immediately sealed with bone wax and the incised scalp was closed with 3-0 silk sutures (Ethicon, North Ryde, NSW). After surgery, all animals were given atipamezole hydrochloride (0.15 mg/kg bw, ip).
Biodistribution studies were performed in Fischer rats bearing intracerebral implants of F98 rat glioma cells. 10–13 days after tumor implantation of 10^5 F98 glioma cells, when signs of a progressively growing tumor were evident (weight loss, lethargy, hunching, and ataxia), biodistribution studies were initiated at which time the animals had tumors weighing 90–180 mg. […] To compare its biodistribution with that of BPA or BSH, another group of rats received an iv injection of BPA at a concentration of 10 mg ^10B/kg bw or BSH at a concentration of 30 mg ^10B/kg bw. Biodistribution was determined 1 and 3 h after termination of iv injection. Animals were euthanized by an overdose of sevoflurane following which tumors and normal tissues, consisting of ipsilateral brain, contralateral brain, blood, heart, lung, liver, spleen, kidney, skin, and muscle, were removed and weighed for ^10B determination by ICP-AES.

F98 rat glioma cells [2] = assay: In vitro 10B uptake in F98 cells (ICP-AES); format: cell-based; conditions: 24 h incubation in DMEM with 1 mM boron compound
Protocol: For the in vitro ^10B uptake study, B16 mouse melanoma cells, C6 rat glioma cells, and F98 rat glioma cells were used. B16 and C6 cells were used for in vitro testing at Osaka Prefecture University. Based on results from initial in vitro screening, the in vitro ^10B uptake study using F98 glioma cells were performed at Osaka Medical College. Four hundred thousand cells were seeded in a tissue culture dish (100 × 20 mm; Becton Dickinson, Franklin Lakes, NJ, USA) with DMEM supplemented with 10% FBS and 10% penicillin and streptomycin at 37 °C in a 5% CO2 atmosphere. After incubation for 4 days at 37 °C, the medium was removed, and DMEM with 10% FBS containing 1 mM KA-BSH, BSH, or BPA was added to each dish. The cells were incubated for an additional 24 h at 37 °C. The medium was then removed, and the cells were washed twice with 4 °C phosphate-buffered saline (PBS) and detached with trypsin–ethylenediamine tetraacetic acid solution. PBS was then added, and cells were digested overnight with 1 N nitric acid solution (Wako Pure Chemical Industries, Osaka, Japan), and ^10B uptake was determined by inductively coupled plasma atomic emission spectrometry (ICP-AES) using an iCAP6000 emission spectrometer (Hitachi High-Technologies, Tokyo, Japan).

## N[C@@H](Cc1ccc(B(O)O)cc1)C(=O)O [BPA, boronophenylalanine, reference compound]
F98 rat glioma cells [1]
  IC50: > 20000 µM
F98 glioma bearing rats; 10 mg 10B/kg, 1 h
  10B concentration, Blood: 6.65 µg 10B/g
  10B concentration, Contralateral brain: 3.19 µg 10B/g
  10B concentration, Heart: 6.12 µg 10B/g
  10B concentration, Ipsilateral brain: 2.94 µg 10B/g
  10B concentration, Kidney: 27.57 µg 10B/g
  10B concentration, Liver: 5.40 µg 10B/g
  10B concentration, Lung: 5.74 µg 10B/g
  10B concentration, Muscle: 5.25 µg 10B/g
  10B concentration, Skin: 7.22 µg 10B/g
  10B concentration, Spleen: 7.58 µg 10B/g
  10B concentration, Tumor: 13.54 µg 10B/g and 13.54 ± 4.82 µg 10B/g
  T/Bl (tumor to blood ratio): 2.00
  T/Br (tumor to normal contralateral brain ratio): 4.21
F98 glioma bearing rats; 10 mg 10B/kg, 3 h
  10B concentration, Blood: 4.41 µg 10B/g
  10B concentration, Contralateral brain: 2.95 µg 10B/g
  10B concentration, Heart: 3.92 µg 10B/g
  10B concentration, Ipsilateral brain: 3.29 µg 10B/g
  10B concentration, Kidney: 11.69 µg 10B/g
  10B concentration, Liver: 3.54 µg 10B/g
  10B concentration, Lung: 4.12 µg 10B/g
  10B concentration, Muscle: 4.89 µg 10B/g
  10B concentration, Skin: 4.80 µg 10B/g
  10B concentration, Spleen: 6.02 µg 10B/g
  10B concentration, Tumor: 11.05 µg 10B/g
  T/Bl (tumor to blood ratio): 2.53
  T/Br (tumor to normal contralateral brain ratio): 3.83
F98 rat glioma cells [2]
  10B concentration of F98 rat glioma cells: 0.654 ± 0.062 µg 10B/10^7 cells

## dodecaboranethiol [BSH, reference compound]
F98 rat glioma cells [1]
  IC50: 1680 µM
F98 glioma bearing rats; 30 mg 10B/kg, 1 h
  10B concentration, Blood: 19.17 µg 10B/g
  10B concentration, Contralateral brain: 0.32 µg 10B/g
  10B concentration, Heart: 3.25 µg 10B/g
  10B concentration, Ipsilateral brain: 0.44 µg 10B/g
  10B concentration, Kidney: 20.84 µg 10B/g
  10B concentration, Liver: 20.81 µg 10B/g
  10B concentration, Lung: 12.70 µg 10B/g
  10B concentration, Muscle: 5.25 µg 10B/g
  10B concentration, Skin: 7.99 µg 10B/g
  10B concentration, Spleen: 5.68 µg 10B/g
  10B concentration, Tumor: 5.49 µg 10B/g and 5.49 ± 0.25 µg 10B/g
  T/Bl (tumor to blood ratio): 0.29
  T/Br (tumor to normal contralateral brain ratio): 17.61
F98 glioma bearing rats; 30 mg 10B/kg, 3 h
  10B concentration, Blood: 5.16 µg 10B/g
  10B concentration, Contralateral brain: 0.24 µg 10B/g
  10B concentration, Heart: 1.15 µg 10B/g
  10B concentration, Ipsilateral brain: 0.36 µg 10B/g
  10B concentration, Kidney: 10.83 µg 10B/g
  10B concentration, Liver: 8.10 µg 10B/g
  10B concentration, Lung: 4.92 µg 10B/g
  10B concentration, Muscle: 0.87 µg 10B/g
  10B concentration, Skin: 4.00 µg 10B/g
  10B concentration, Spleen: 2.74 µg 10B/g
  10B concentration, Tumor: 3.01 µg 10B/g
  T/Bl (tumor to blood ratio): 0.61
  T/Br (tumor to normal contralateral brain ratio): 12.71
F98 rat glioma cells [2]
  10B concentration of F98 rat glioma cells: 0.508 ± 0.072 µg 10B/10^7 cells
